Test system: tinnitus positive mice
Assay: go/no-go trials, sound-based avoidance detection (SBAD) in noise-induced tinnitus mice
Format: in vivo
Conditions: intraperitoneal injection; for dosage reached before the agent alone was effective in treating the animals tinnitus: single agent
Experimental: With reference to FIGS. 1A-1D, single drug treatment of tinnitus is evaluated using the go/no-go methodology further elaborated upon in Example 4. With reference to FIGS. 2A-2B, multi drug treatment of tinnitus is evaluated using the go/no-go methodology further elaborated upon in Example 4. […] Using a shuttle box divided into two compartments, mice were trained to cross from side to side with sound cues in the “Go” trials and remain still in the absence of sound in the “No-Go” trials for 15 days. […] The sound cues were randomly played as white noise or narrow-band noise at 8,10,12.5,16, and 29 kHz with sound intensities randomly at 75, 80, or 85 dB. […] Additionally, a hurdle was added on training 11 to reinforce the training. After the 15th training day, mice were tested for 3 days to obtain a baseline score to be compared after noise exposure, as well as retraining for 3 days. Following the successful completion of training so that mice reached a high percentage of success in the trials, the mice were exposed to a noise-induced trauma for tinnitus over a two day period. To ensure that the mice still have their hearing, one ear was protected with an ear plug, while the other ear was exposed to the noise. The mice were placed in a sound booth where they were exposed to 120 dB broadband noise at 4-25 kHz for two hours. Following the noise exposure, the mice were housed for one month, and then tested to see if they have developed tinnitus. In these testing periods, the mice were tested for three days in the shuttle boxes, where they underwent the Go and No-Go trials, however in the No-Go trials the mice were not shocked, as it is expected that mice with tinnitus would cross compartments in the absence of a sound cue. The mice were continued to be shocked in the Go trials in order to ensure that they have retained their hearing and can hear the sound cues. […] To insure there is a significant difference in the No-Go trial scores, chi-square tests were completed comparing the post-noise exposure tests to the baseline tests. However, if tinnitus is not present in the mice, tests were done after waiting one more month, and another if needed. […] The Go and No-Go scores for the tests were compared using chi-square tests in Social Science Statistics and JASP. The chi-square tests were used first to determine whether mice were tinnitus positive by comparing the No-Go baseline scores pre-noise exposure to the No-Go post-noise exposure scores, with a significant difference (p-value<0.05) in at least 2 of the tests indicating a tinnitus positive mouse. Following this conclusion, the mice were tested accordingly to determine if their No-Go scores could be improved by different drug doses and combinations. […] The No-Go scores at 3 months post-noise exposure were compared to baselines to assess for tinnitus. Mice had significant decreases on all 3 days of testing. This indicates these mice had tinnitus. One or more mice is a control animal. In looking at the Go scores for the tinnitus animals when tested with the specified drugs, mice had significant decreases in their scores when. […] In contrast, a lack of change in the No-Go scores indicates the first and/or second agent was not effective in treating the animal's tinnitus, and decrease in the score may indicate that the animal's tinnitus was worsened.

Compound: CCOC(=O)C1=C(COCCN)NC(C)=C(C(=O)OC)C1c1ccccc1Cl (centres unmarked) [AML, amlodipine]
- correct percentage result in the no-go trial (AML 5 mg/kg): ~90%
- correct percentage result in the no-go trial (AML 8 mg/kg): ~95%

Compound: NC(=O)N1c2ccccc2C=Cc2ccccc21 [CBZ, carbamazepine]
- correct percentage result in the no-go trial (CBZ 5 mg/kg, within a margin of error of the saline dosed mice): less than 70%
- correct percentage result in the no-go trial (CBZ 8 mg/kg): less than 80%

Compound: CCC1(C)CC(=O)NC1=O (centres unmarked) [ESM, ethosuximide]
- correct percentage result in the no-go trial (ESM 300 mg/kg): ~70%

Compound: COCCOC(=O)C1=C(C)NC(C)=C(C(=O)OC(C)C)C1c1cccc([N+](=O)[O-])c1 (centres unmarked) [NMDP, nimodipine]
- correct percentage result in the no-go trial (NMDP 30 mg/kg): ~95%
- correct percentage result in the no-go trial (NMDP 50 mg/kg): ~95%
- dosage reached before the agent alone was effective in treating the animals tinnitus: about 30 mg/kg

Compound: COc1ccc2cc1Oc1ccc(cc1)C[C@H]1c3cc(c(OC)cc3CCN1C)Oc1c(OC)c(OC)cc3c1[C@H](C2)N(C)CC3 [TET, tetrandrine]
- correct percentage result in the no-go trial (TET 60 mg/kg): ~90%
- correct percentage result in the no-go trial (TET 90 mg/kg): ~95%
- dosage reached before the agent alone was effective in treating the animals tinnitus: about 30 mg/kg

Source: patent publication US20260207616A1, “COMBINATION THERAPIES FOR TREATMENT OF HEARING DISORDERS” (GATEWAY BIOTECHNOLOGY, INC., priority 2023, published 2026)
